Test [1] concerns Influenza Virus A/Maryland/04/2011 H1N1. It is filed as cell-based.
Test [2] deals with Influenza Virus A/California/07/2009 H1N1. It is filed as cell-based.

From patent US20160106692A1 (priority 2014, published 2016) come the findings set out here.

Entries after “also recorded” stand apart in the source; their conditions may differ.

With `CCOC(=O)C1=C[C@@H](OC(CC)CC)[C@H](NC(C)=O)[C@@H](N)C1` [Oseltamivir], the figures for the “plaque inhibition, result in words” value in test [1] and in test [2] were “only partially sensitive; also recorded: reduced oseltamivir susceptibility” and “sensitive to this drug to 1 μM; also recorded: showed inhibitory effects”, respectively.
